The values that follow come from patent US10501453B2, “Benzothiazole or benzoxazole compounds as SUMO activators” (Icahn School of Medicine at Mount Sinai, priority 2012, dated 2019).

The test addresses T1, SUMO E1 enzyme (Homo sapiens, UniProt Q9UBT2).
T1 sequence (Q9UBT2 1-640): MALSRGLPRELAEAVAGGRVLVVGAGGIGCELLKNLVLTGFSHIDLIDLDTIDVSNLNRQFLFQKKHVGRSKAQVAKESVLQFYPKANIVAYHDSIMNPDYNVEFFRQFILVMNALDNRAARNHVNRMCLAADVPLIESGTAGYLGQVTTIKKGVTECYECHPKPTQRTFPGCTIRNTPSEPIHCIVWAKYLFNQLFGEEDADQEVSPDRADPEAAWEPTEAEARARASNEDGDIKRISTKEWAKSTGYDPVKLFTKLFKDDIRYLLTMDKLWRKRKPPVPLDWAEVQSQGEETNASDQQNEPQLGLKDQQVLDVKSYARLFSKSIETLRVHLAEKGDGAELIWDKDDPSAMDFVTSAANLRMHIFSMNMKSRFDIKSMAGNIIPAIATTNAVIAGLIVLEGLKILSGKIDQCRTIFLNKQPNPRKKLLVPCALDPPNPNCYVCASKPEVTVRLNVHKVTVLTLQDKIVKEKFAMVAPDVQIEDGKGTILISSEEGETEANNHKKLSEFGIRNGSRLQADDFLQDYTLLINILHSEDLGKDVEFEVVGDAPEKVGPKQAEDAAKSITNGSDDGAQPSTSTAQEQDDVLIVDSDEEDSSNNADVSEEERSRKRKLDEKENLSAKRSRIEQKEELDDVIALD
T1 sequence (Q9UBE0 1-346): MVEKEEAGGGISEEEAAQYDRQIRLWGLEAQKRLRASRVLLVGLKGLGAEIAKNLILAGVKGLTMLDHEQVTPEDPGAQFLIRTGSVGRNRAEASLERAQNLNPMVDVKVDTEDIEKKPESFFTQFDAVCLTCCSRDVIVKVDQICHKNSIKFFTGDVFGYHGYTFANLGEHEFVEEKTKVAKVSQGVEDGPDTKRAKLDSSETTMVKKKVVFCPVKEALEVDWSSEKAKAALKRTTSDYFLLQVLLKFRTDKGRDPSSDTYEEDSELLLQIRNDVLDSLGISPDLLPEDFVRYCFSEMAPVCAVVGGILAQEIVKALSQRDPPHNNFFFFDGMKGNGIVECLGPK
The test can be described thus: Thioester formation between SUMO-1 and SUMO E1 enzyme (gel-based assay). Type of test: biochemical.

Molecules are shown by their SMILES.

In turn, `COc1ccc(-c2nnc(Nc3nc4c(OC)cccc4s3)o2)cc1` [Example 1, N-(4-methoxybenzo[d]thiazol-2-yl)-5-(4-methoxyphenyl)-1,3,4-oxadiazol-2-amine] had an EC50 of 1850 ± 960 nM.
